In US10669269B2, “Substituted N-(1H-indazol-4-yl)imidazo[1,2-a]pyridine-3-carboxamide compounds as type III receptor tyrosine kinase inhibitors” (ARRAY BIOPHARMA INC., priority 2010, dated 2020):
Counter-ions that a name gives are not always drawn.

How the values were obtained:
PDGFR beta = target: T1, PDGFR beta (Homo sapiens, UniProt P09619); test: Phospho PDGFR Cell Assay, sandwich ELISA (Example A); assay type: cell-based; details: averaged IC50, PDGFR beta phosphorylation in HS27 human fibroblast cell line, PDGF-BB stimulation 5 minutes
T1 construct: endogenous in cells; host or cells: HS27 human fibroblast cell line
Experimental: Compounds were screened for inhibition of PDGFR beta phosphorylation in the HS27 human fibroblast cell line. Cells were seeded into a 96 well tissue culture plate, then incubated overnight in a 37° C., 5% CO2 incubator. The following day, cells were treated for one hour with test compound dilutions. After stimulation with PDGF-BB ligand for 5 minutes, cells were lysed and added to a sandwich ELISA plate from R&D Systems to detect levels of phospho PDGFR beta. A standard 4-parameter logistic model was fit to the inhibitor dose response curves, with the IC50 being defined as the concentration of inhibitor giving 50 percent of control (POC).

cFMS = target: T2, cFMS (Homo sapiens, UniProt P07333); test: cFMS Cell-Based Assay (Example C); details: averaged IC50; phospho-cFMS in THP-1 cells stimulated with 250 ng/mL recombinant human MCSF; read-out: cFMS Cell ELISA IC50
T2 construct: THP-1 cells (human acute monocytic leukemia cell line) were serum-starved for 4 hours; endogenous in cells; host or cells: THP-1 cells (human acute monocytic leukemia cell line)
Method in brief: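 THP-1 cells serum-starved 4 h, then treated 1 h with compound (9-point, 3-fold series, top dose typically 5,000 nM) at 37 °C, then stimulated 1 min with 250 ng/mL recombinant human MCSF. Phospho-cFMS in lysates quantified by capture ELISA against a purified phospho-protein standard curve. IC50 at 50 percent of control, 4-parameter logistic fit.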

c-KIT = target: T3, c-KIT (Homo sapiens, UniProt P10721); test: c-KIT Cell-Based Assay (Example D); details: averaged IC50; phospho-c-KIT in M-07e cells stimulated with 150 ng/ml recombinant human SCF; read-out: cKIT Cell ELISA IC50
T3 construct: M-07e cells (human acute megakaryoblastic leukemia cell line) were serum-starved for 4 hours; endogenous in cells; host or cells: M-07e cells (human acute megakaryoblastic leukemia cell line)
Method in brief: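 M-07e cells serum-starved 4 h, treated 1 h with compound (9-point, 3-fold dilutions, top dose typically 5,000 nM) at 37° C, then stimulated 4 min with 150 ng/ml SCF. Phospho-c-KIT in lysates quantified by ELISA against a standard curve; IC50 from 4-parameter logistic fit as 50% of control.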

T3 sequence (P10721 26-976): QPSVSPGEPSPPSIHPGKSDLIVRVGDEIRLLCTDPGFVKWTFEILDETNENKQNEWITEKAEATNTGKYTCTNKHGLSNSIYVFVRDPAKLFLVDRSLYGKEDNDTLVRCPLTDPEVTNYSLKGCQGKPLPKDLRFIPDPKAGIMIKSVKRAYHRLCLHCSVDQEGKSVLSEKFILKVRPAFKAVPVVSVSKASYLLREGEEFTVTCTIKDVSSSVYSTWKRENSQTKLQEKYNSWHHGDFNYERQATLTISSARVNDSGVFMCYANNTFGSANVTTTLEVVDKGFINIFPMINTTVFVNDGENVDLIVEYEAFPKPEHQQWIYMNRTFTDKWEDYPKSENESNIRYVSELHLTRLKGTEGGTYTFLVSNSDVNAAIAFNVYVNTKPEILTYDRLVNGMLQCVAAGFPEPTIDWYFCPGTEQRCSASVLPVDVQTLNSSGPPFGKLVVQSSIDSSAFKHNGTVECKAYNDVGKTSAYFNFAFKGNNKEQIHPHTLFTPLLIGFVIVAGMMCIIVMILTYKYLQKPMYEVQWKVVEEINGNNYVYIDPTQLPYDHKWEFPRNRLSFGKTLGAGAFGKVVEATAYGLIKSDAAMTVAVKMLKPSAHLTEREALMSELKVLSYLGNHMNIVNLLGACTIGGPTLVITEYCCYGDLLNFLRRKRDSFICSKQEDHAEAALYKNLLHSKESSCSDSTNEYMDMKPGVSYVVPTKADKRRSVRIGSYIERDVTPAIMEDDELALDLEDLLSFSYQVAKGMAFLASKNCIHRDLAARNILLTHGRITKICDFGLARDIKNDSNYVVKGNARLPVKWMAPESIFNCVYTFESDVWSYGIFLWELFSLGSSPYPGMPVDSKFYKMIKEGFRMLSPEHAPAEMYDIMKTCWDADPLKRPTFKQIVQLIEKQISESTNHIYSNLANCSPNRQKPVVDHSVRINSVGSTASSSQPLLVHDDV
T2 sequence (P07333 20-972): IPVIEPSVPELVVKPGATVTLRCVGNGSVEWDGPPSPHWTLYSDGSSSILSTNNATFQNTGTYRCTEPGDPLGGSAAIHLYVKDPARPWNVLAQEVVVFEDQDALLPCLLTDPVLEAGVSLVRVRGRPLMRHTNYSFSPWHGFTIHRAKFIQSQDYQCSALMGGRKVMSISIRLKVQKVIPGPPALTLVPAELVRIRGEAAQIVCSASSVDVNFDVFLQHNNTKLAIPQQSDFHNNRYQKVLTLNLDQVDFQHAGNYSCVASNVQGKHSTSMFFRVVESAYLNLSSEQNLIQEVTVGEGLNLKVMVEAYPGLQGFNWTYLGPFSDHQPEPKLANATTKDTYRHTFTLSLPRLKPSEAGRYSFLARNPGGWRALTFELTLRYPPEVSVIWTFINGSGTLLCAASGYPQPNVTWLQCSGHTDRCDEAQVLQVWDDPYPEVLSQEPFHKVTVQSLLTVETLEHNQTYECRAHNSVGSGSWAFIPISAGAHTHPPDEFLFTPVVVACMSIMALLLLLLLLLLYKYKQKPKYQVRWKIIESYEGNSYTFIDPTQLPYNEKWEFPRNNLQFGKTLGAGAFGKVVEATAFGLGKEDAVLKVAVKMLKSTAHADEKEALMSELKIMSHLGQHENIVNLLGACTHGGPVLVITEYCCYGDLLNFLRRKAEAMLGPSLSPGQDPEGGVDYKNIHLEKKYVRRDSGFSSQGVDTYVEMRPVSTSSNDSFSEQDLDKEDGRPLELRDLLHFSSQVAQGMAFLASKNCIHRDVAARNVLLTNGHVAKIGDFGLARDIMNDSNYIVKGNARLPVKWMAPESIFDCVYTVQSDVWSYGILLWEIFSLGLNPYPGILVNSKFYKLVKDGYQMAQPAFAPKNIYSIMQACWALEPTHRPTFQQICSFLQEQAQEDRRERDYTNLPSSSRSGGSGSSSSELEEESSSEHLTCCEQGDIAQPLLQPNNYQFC
T1 sequence (P09619 33-1106): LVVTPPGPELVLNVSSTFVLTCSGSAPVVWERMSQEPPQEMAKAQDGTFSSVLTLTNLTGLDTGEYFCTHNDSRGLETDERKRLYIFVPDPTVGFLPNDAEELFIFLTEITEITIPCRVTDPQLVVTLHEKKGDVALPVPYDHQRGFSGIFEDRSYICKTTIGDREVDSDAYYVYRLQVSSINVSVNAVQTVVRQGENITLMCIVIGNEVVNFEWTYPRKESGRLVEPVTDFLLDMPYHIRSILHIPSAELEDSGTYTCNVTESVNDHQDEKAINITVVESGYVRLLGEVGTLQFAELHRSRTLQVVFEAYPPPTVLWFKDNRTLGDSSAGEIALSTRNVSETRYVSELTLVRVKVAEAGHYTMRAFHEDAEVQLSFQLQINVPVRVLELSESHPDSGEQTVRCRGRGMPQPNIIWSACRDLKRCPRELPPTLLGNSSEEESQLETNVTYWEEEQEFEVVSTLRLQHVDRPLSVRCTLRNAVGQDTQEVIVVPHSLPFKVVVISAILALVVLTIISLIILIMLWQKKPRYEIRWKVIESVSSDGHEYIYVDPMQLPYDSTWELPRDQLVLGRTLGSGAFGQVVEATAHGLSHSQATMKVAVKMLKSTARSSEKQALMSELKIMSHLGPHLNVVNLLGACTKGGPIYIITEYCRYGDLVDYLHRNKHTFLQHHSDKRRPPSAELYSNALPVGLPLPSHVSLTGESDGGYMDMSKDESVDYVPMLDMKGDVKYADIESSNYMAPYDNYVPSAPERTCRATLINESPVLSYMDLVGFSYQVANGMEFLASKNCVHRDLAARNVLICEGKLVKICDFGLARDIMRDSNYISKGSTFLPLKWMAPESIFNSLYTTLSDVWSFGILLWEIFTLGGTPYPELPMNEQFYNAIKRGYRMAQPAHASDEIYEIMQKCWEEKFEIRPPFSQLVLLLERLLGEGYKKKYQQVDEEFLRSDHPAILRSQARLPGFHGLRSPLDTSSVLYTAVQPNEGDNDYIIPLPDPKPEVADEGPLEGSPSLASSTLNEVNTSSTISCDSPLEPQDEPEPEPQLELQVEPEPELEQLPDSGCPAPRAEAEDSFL

SMILES | IC50 (PDGFR beta) [µM] | IC50 (cFMS) [µM] | IC50 (c-KIT) [µM]
Cc1nn(Cc2cccc(C3CCCC3)n2)c2cccc(NC(=O)c3cnc4cc(OCCN5CCN(C)[C@@H](C)C5)ccn34)c12 [Example 33, (S)—N-(1-((6-cyclopentylpyridin-2-yl)methyl)-3-methyl-1H-indazol-4-yl)-7-(2-(3,4-dimethylpiperazin-1-yl)ethoxy)imidazo[1,2-a]pyridine-3-carboxamide] | 0.0658 | 0.0415 | 0.0226
Cc1cccc(Cn2nc(C)c3c(NC(=O)c4cnc5cc(OCCN6CCN(C)[C@@H](C)C6)ccn45)cccc32)n1 [Example 35, (S)-7-(2-(3,4-dimethylpiperazin-1-yl)ethoxy)-N-(3-methyl-1-((6-methylpyridin-2-yl)methyl)-1H-indazol-4-yl)imidazo[1,2-a]pyridine-3-carboxamide] | 0.431 | 0.0194 | 0.924
CCc1cccc(Cn2nc(C)c3c(NC(=O)c4cnc5cc(OCCN6CCN(C)[C@@H](C)C6)ccn45)cccc32)n1 [Example 36, (S)-7-(2-(3,4-dimethylpiperazin-1-yl)ethoxy)-N-(1-((6-ethylpyridin-2-yl)methyl)-3-methyl-1H-indazol-4-yl)imidazo[1,2-a]pyridine-3-carboxamide] | 0.0656 | 0.012 | 0.119
CCC(C)c1cccc(Cn2nc(C)c3c(NC(=O)c4cnc5cc(OCCN6CCN(C)[C@@H](C)C6)ccn45)cccc32)n1 (stereo partly drawn) [Example 37, N-(1-((6-sec-butylpyridin-2-yl)methyl)-3-methyl-1H-indazol-4-yl)-7-(2-((S)-3,4-dimethylpiperazin-1-yl)ethoxy)imidazo[1,2-a]pyridine-3-carboxamide] | 0.102 | 0.0524 | 0.062
CCCc1ccc(Cn2nc(C)c3c(NC(=O)c4cnc5cc(OCCN6CCN(C)[C@@H](C)C6)ccn45)cccc32)nc1 [Example 38, (S)-7-(2-(3,4-dimethylpiperazin-1-yl)ethoxy)-N-(3-methyl-1-((5-propylpyridin-2-yl)methyl)-1H-indazol-4-yl)imidazo[1,2-a]pyridine-3-carboxamide] | 0.253 | 0.0154 | 0.337
Cc1nn(Cc2ccc(C(C)C)cn2)c2cccc(NC(=O)c3cnc4cc(OCCN5CCN(C)[C@@H](C)C5)ccn34)c12 [Example 39, (S)-7-(2-(3,4-dimethylpiperazin-1-yl)ethoxy)-N-(1-((5-isopropylpyridin-2-yl)methyl)-3-methyl-1H-indazol-4-yl)imidazo[1,2-a]pyridine-3-carboxamide] | 0.068 | 0.0357 | 0.188
Cc1nn(Cc2cccc(CC(C)C)n2)c2cccc(NC(=O)c3cnc4cc(OCCN5CCN(C)[C@@H](C)C5)ccn34)c12 [Example 40, (S)-7-(2-(3,4-dimethylpiperazin-1-yl)ethoxy)-N-(1-((6-isobutylpyridin-2-yl)methyl)-3-methyl-1H-indazol-4-yl)imidazo[1,2-a]pyridine-3-carboxamide] | 0.0372 | 0.0558 | 0.095
Cc1nn(Cc2ccc(F)c(C(C)C)n2)c2cccc(NC(=O)c3cnc4cc(OCCN5CCN(C)[C@@H](C)C5)ccn34)c12 [Example 41, (S)-7-(2-(3,4-dimethylpiperazin-1-yl)ethoxy)-N-(1-((5-fluoro-6-isopropylpyridin-2-yl)methyl)-3-methyl-1H-indazol-4-yl)imidazo[1,2-a]pyridine-3-carboxamide] | 0.0196 | 0.0971 | 0.0872
Cc1nn(Cc2cccc(C3CC3)n2)c2ccc(F)c(NC(=O)c3cnc4cc(OCCN5CCN(C)[C@@H](C)C5)ccn34)c12 [Example 43, (S)—N-(1-((6-cyclopropylpyridin-2-yl)methyl)-5-fluoro-3-methyl-1H-indazol-4-yl)-7-(2-(3,4-dimethylpiperazin-1-yl)ethoxy)imidazo[1,2-a]pyridine-3-carboxamide] | 0.0845 | 0.0234 | 0.0589
Cc1nn(Cc2cccc(C(C)C)n2)c2cccc(NC(=O)c3cnc4cc(OCCN5CCN[C@@H](C)C5)ccn34)c12 [Example 46, (S)—N-(1-((6-isopropylpyridin-2-yl)methyl)-3-methyl-1H-indazol-4-yl)-7-(2-(3-methylpiperazin-1-yl)ethoxy)imidazo[1,2-a]pyridine-3-carboxamide] | 0.0214 | 0.0224 | 0.0425
Cc1cccc(Cn2nc(C)c3c(NC(=O)c4cnc5cc(C6=CCNCC6)ccn45)cccc32)n1 [Example 51, N-(3-methyl-1-((6-methylpyridin-2-yl)methyl)-1H-indazol-4-yl)-7-(1,2,3,6-tetrahydropyridin-4-yl)imidazo[1,2-a]pyridine-3-carboxamide hydrochloride] | 0.394 | 0.0099 | 0.687
Cc1cccc(Cn2nc(C)c3c(NC(=O)c4cnc5cc(C6CCNCC6)ccn45)cccc32)n1 [Example 52, N-(3-methyl-1-((6-methylpyridin-2-yl)methyl)-1H-indazol-4-yl)-7-(piperidin-4-yl)imidazo[1,2-a]pyridine-3-carboxamide tri-hydrochloride] | ≥ 1 | 0.108 | 5
Cc1cccc(Cn2nc(C)c3c(NC(=O)c4cnc5cc(F)ccn45)cccc32)n1 [Example 53, 7-fluoro-N-(3-methyl-1-((6-methylpyridin-2-yl)methyl)-1H-indazol-4-yl)imidazo[1,2-a]pyridine-3-carboxamide] | ≥ 1 | 0.0735 | 4.58
Cc1cccc(Cn2nc(C)c3c(NC(=O)c4cnc5cc(N6CCCC6)ccn45)cccc32)n1 [Example 54, N-(3-methyl-1-((6-methylpyridin-2-yl)methyl)-1H-indazol-4-yl)-7-(pyrrolidin-1-yl)imidazo[1,2-a]pyridine-3-carboxamide dihydrochloride] | 0.291 | 0.0088 | 0.387
Cc1cccc(Cn2nc(C)c3c(NC(=O)c4cnc5cc(OCCN6CCN(C(=O)OC(C)(C)C)CC6)ccn45)cccc32)n1 [Example 56, tert-Butyl 4-(2-(3-(3-methyl-1-((6-methylpyridin-2-yl)methyl)-1H-indazol-4-ylcarbamoyl)imidazo[1,2-a]pyridin-7-yloxy)ethyl)piperazine-1-carboxylate] | ≥ 1 | 0.0321 | 1.16
Cc1cccc(Cn2nc(C)c3c(NC(=O)c4cnc5cc(OCCO)ccn45)cccc32)n1 [Example 57, 7-(2-hydroxyethoxy)-N-(3-methyl-1-((6-methylpyridin-2-yl)methyl)-1H-indazol-4-yl)imidazo[1,2-a]pyridine-3-carboxamide di-hydrochloride salt] | 0.658 | 0.0402 | 1.27
Cc1cccc(Cn2nc(C)c3c(NC(=O)c4cnc5ccc(C#N)cn45)cccc32)n1 [Example 62, 6-cyano-N-(3-methyl-1-((6-methylpyridin-2-yl)methyl)-1H-indazol-4-yl)imidazo[1,2-a]pyridine-3-carboxamide] | 0.886 | 0.257 | 2.45
Cc1cccc(Cn2nc(C)c3c(NC(=O)c4cnc5cc(O)ccn45)cccc32)n1 [Example 63, 7-hydroxy-N-(3-methyl-1-((6-methylpyridin-2-yl)methyl)-1H-indazol-4-yl)imidazo[1,2-a]pyridine-3-carboxamide] | ≥ 1 | 0.047 | 5
Cc1cccc(Cn2nc(C)c3c(NC(=O)c4cnc5cc(-c6cn[nH]c6)ccn45)cccc32)n1 [Example 70, N-(3-methyl-1-((6-methylpyridin-2-yl)methyl)-1H-indazol-4-yl)-7-(1H-pyrazol-4-yl)imidazo[1,2-a]pyridine-3-carboxamide] | 0.0992 | 0.0051 | 0.146
Cc1cccc(Cn2nc(C)c3c(NC(=O)c4cnc5cc(-c6ccnn6C)ccn45)cccc32)n1 [Example 71, N-(3-methyl-1-((6-methylpyridin-2-yl)methyl)-1H-indazol-4-yl)-7-(1-methyl-1H-pyrazol-5-yl)imidazo[1,2-a]pyridine-3-carboxamide] | 0.274 | 0.0076 | 0.455
Cc1cccc(Cn2nc(C)c3c(NC(=O)c4cnc5cc(CCO)ccn45)cccc32)n1 [Example 73, 7-(2-hydroxyethyl)-N-(3-methyl-1-((6-methylpyridin-2-yl)methyl)-1H-indazol-4-yl)imidazo[1,2-a]pyridine-3-carboxamide] | ≥ 1 | 0.0636 | 5
